Calls of active or inactive are those of the source.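 How the source made its calls: active means curve reaching 10% of positive control caspase signal at or below the top valid tested dose; inactive means opposite-direction activity, or no crossing across tested range.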
Columns and labels:
[1] = test system: MEWO A1-expressing, TSA primed, caspase-Glo luminescence, 3 h; assay: caspase activation in TSA-primed A1-expressing MEWO, dose response, orthogonal assay for A1 inhibitor project, cell-based, Trichostatin A primed, luminescence, set 2 (AID 504356)
[2] = as above; conditions: MEWO A1-expressing, TSA primed, caspase-Glo luminescence, 3 h, hits give high values

Question: With `Cc1ccc(Sc2c([N+](=O)[O-])cnc3ccccc23)cc1` as the molecule, how does the AC10 [1] read?
Answer: The AC10 was 24.9 µM.

Question: Which max caspase activation ([2]; at 30 µM) does the source give for `Cn1c(=O)c([N+](=O)[O-])c(Oc2ccccc2)c2ccccc21` here?
Answer: The max caspase activation was 2.08% (inactive).

Question: Which max caspase activation ([2]; at 30 µM) does the source give for `O=c1oc2ccccc2c(Sc2ccccc2)c1[N+](=O)[O-]` here?
Answer: The max caspase activation was -5.41% (inactive).

Question: With `CCOC(=O)N1CCN(c2c([N+](=O)[O-])c(=O)n(C)c3ccccc23)CC1` as the molecule, how does the max caspase activation ([2]; at 8 µM) read?
Answer: The max caspase activation was 0.764% (inactive).

Question: Which max caspase activation ([2]; at 16 µM) does the source give for `CN1C(=O)C(C)(C)N(Cc2ccccc2)c2ccccc21` here?
Answer: Its max caspase activation is -0.643% (inactive).

Question: Which max caspase activation ([2]; at 8 µM) does the source give for `Cn1c(=O)c([N+](=O)[O-])c(Cl)c2ccccc21` here?
Answer: The max caspase activation was 9.18% (inactive).

Question: With `Cc1ccc(Sc2cc(=O)n(C)c3ccccc23)cc1` as the molecule, how does the max caspase activation ([2]; at 30 µM) read?
Answer: Its max caspase activation is -5.85% (inactive).

Question: For `CCSc1c([N+](=O)[O-])c(=O)oc2ccccc12`, which max caspase activation ([2]; at 8 µM) is on record?
Answer: Its max caspase activation is 2.46% (inactive).

Question: Which AC10 [1] does the source give for `Cc1ccc(Sc2c([N+](=O)[O-])c(=O)n(C)c3ccccc23)cc1` here?
Answer: The AC10 was > 30 µM (inactive).

Question: For `C/C1=C/C(=O)O[C@@H]2C[C@@H](CC[C@H](C)/C=C\CC1)O[C@@](O)(C1CSC(=O)N1)C2` (stereo partly specified), which max caspase activation ([2]; at 30 µM) is on record?
Answer: The max caspase activation was 2.64% (inactive).

Question: With `Cn1c(=O)c([N+](=O)[O-])c(Nc2ccc(Cl)cc2)c2ccccc21` as the molecule, how does the max caspase activation ([2]; at 0.235 µM) read?
Answer: The max caspase activation was 3.04% (inactive).

Question: For `Cn1c(=O)c([N+](=O)[O-])c(-n2cnc3ccccc32)c2ccccc21`, which AC10 [1] is on record?
Answer: Its AC10 is > 30 µM (inactive).

Question: With `O=[N+]([O-])c1cnc2ccccc2c1Sc1ccccc1` as the molecule, how does the AC10 [1] read?
Answer: Its AC10 is > 30 µM (inactive).

Question: For `O=C(Oc1cccc(/C=N/Nc2nc(Nc3ccccc3)nc(N3CCOCC3)n2)c1)c1ccco1`, which max caspase activation ([2]; at 3.8 µM) is on record?
Answer: The max caspase activation was 2.46% (inactive).

Question: With `O=c1oc2ccccc2c(Cl)c1[N+](=O)[O-]` as the molecule, how does the max caspase activation ([2]; at 30 µM) read?
Answer: Its max caspase activation is -5.13% (inactive).

Question: For `Cc1ccc(Nc2c([N+](=O)[O-])c(=O)oc3ccccc23)cc1`, which max caspase activation ([2]; at 16 µM) is on record?
Answer: The max caspase activation was 1.85% (inactive).

Question: Which max caspase activation ([2]; at 0.5 µM) does the source give for `Cc1ccc(Nc2c([N+](=O)[O-])c(=O)n(C)c3ccccc23)cc1` here?
Answer: The max caspase activation was 1.48% (inactive).

Question: With `CCOCCCNc1c([N+](=O)[O-])c(=O)n(C)c2ccccc12` as the molecule, how does the max caspase activation ([2]; at 8 µM) read?
Answer: Its max caspase activation is 1.97% (inactive).

Question: For `O=c1oc2ccccc2c(N2CCCCC2)c1[N+](=O)[O-]`, which max caspase activation ([2]; at 0.235 µM) is on record?
Answer: Its max caspase activation is -1.97% (inactive).

Question: For `Cc1ccc(Sc2c([N+](=O)[O-])c(=O)oc3ccccc23)cc1`, which max caspase activation ([2]; at 16 µM) is on record?
Answer: Its max caspase activation is -4.17% (inactive).

Question: With `O=c1oc2ccccc2c(Nc2cc(Cl)cc(Cl)c2)c1[N+](=O)[O-]` as the molecule, how does the max caspase activation ([2]; at 0.12 µM) read?
Answer: The max caspase activation was 2.71% (inactive).

— PubChem BioAssay AID504356 (Broad Institute, 2011)
